Common to all, as to format: in vivo
Assay [1] concerns Pyricularia oryzae (rice blast). Description: whole plant or invertebrate. The conditions noted are these: disease control rating, foliar spray on rice, 400 ppm (+++ at 100 ppm).
For assay [2], the system named is southern armyworm (Spodopetra eridania Cramer). Description: Mite/insect screen, SAW. The conditions noted are these: Spodoptera eridania, percent mortality, SAW, read-out: SAW RESULTS %; for mortality at 200 ppm: SM & MA RATE 200 PPM; for mortality at 400 ppm: SM & MA RATE 400 PPM. Summed up: (§1)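 Compounds dissolved in 50:50 acetone/alcohol containing sulfonate/nonionic emulsifier blends, then diluted with water to the indicated concentrations. Leaves sprayed on both surfaces to runoff at 10 psi and dried one hour. Percent mortality scored after standard exposure periods.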

For assay [3], the system named is melon aphids (Aphis gossypii Glover). Description: Mite/insect screen, MA. The conditions noted are these: Aphis gossypii, percent mortality, SAW, read-out: MA RESULTS %; for mortality at 200 ppm: SM & MA RATE 200 PPM; for mortality at 400 ppm: SM & MA RATE 400 PPM. The procedure, abridged:
as §1

The test system of assay [4] is Pseudoperonospora cubensis (downy mildew). Description: Test 1 greenhouse foliar spray screen, downy mildew on squash. The conditions noted are these: disease control rating, foliar spray on squash, 400 ppm (+++ at 100 ppm).
Assay [5] relates to Cercospora beticola (leaf spot). The assay can be described thus: Test 1 greenhouse foliar spray screen, leaf spot on sugar beet. The conditions noted are these: disease control rating, foliar spray on sugar beet, 400 ppm (+++ at 100 ppm).
For assay [6], the system named is Septoria tritici (leaf blotch). Description: Test 1 greenhouse foliar spray screen, leaf blotch on wheat. The conditions noted are these: disease control rating, foliar spray on wheat, 400 ppm (+++ at 100 ppm).
The test system of assay [7] is Botrytis cinerea (gray mold). Description: Test 1 greenhouse foliar spray screen, gray mold on grape berries. The conditions noted are these: disease control rating, spray on grape berries, 400 ppm (+++ at 100 ppm).
Assay [8] has as its system Venturia inaequalis (apple scab). Description: Test 1 greenhouse foliar spray screen, apple scab on apple seedling. The conditions noted are these: disease control rating, foliar spray on apple seedling, 400 ppm (+++ at 100 ppm).
Assay [9] deals with corn rootworm. Description: Mite/insect screen, CRW. The conditions noted are these: percent mortality, read-out: CRW RESULTS %; for mortality at 12 ppm: CRW RATE 12.00 PPM; for mortality at 24 ppm: CRW RATE 24.00 PPM. The procedure, abridged: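 Compounds were dissolved in 50:50 acetone/alcohol containing sulfonate/nonionic emulsifier blends (23 g/L plus 13 g/L), then diluted with water to the test concentrations. Percent mortality was scored after standard exposure periods.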

For assay [10], the system named is Puccinia recondita tritici (leaf rust). The assay can be described thus: Test 1 greenhouse foliar spray screen, leaf rust on wheat. The conditions noted are these: disease control rating, foliar spray on wheat, 400 ppm (+++ at 100 ppm).
Assay [11] deals with Erysiphe graminis tritici (powdery mildew). Description: Test 1 greenhouse foliar spray screen, powdery mildew on wheat. The conditions noted are these: disease control rating, foliar spray on wheat, 400 ppm (+++ at 100 ppm).
Assay [12] concerns Twospotted spider mites (Tetranychus urticae Koch). The assay can be described thus: Mite/insect screen, SM. The conditions noted are these: Tetranychus urticae, percent mortality, SAW, read-out: SM RESULTS %; for mortality at 200 ppm: SM & MA RATE 200 PPM; for mortality at 400 ppm: SM & MA RATE 400 PPM. The procedure, abridged: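 Activity is expressed as percent mortality at the indicated spray concentrations. Plants are sprayed to runoff on upper and lower leaf surfaces with aqueous dilutions of an acetone/alcohol emulsifiable formulation, then dried for one hour.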

From EP0326331B1, “Substituted quinolines and cinnolines” (Dow AgroSciences LLC, priority 1988, dated 1989) come the findings set out here.

On to `Cc1cc(C)c2nccc(NCCc3ccc(Cl)cc3)c2c1` [Example 15, N-[2-(4-chlorophenyl)ethyl]-6,8-dimethyl-4-quinolinamine], for which, in assay [1], the “RICE BLAST” value is given as “+ (20-89% control at 400 ppm)”. For the same compound, in assay [2], the mortality at 200 ppm came to 0% and the mortality at 400 ppm worked out at 0%. Besides, in assay [3], the mortality at 200 ppm came to 0% and the mortality at 400 ppm came to 0%. The “DOWN MDEW” value in assay [4] is “+++ (90-100% control at 100 ppm)”. The “LEAF SPOT” value in [5] is recorded as “+++ (90-100% control at 100 ppm)”. Besides, the “LEAF BLOT” value in assay [6] was “- (0-19% control at 400 ppm)”. The “GRAY MOLD” value in assay [7] is recorded as “- (0-19% control at 400 ppm)”. For the same compound, in assay [8], the “APPL SCAB” value is given as “+ (20-89% control at 400 ppm)”. In assay [9], the mortality at 12 ppm turned out to be 0% and the mortality at 24 ppm was 0%. For the same compound, in assay [10], the “LEAF RUST” value is given as “+ (20-89% control at 400 ppm)”. Also, the “POWD MDEW” value in [11] is on record as “- (0-19% control at 400 ppm)”. In [12], the mortality at 200 ppm is 0% and the mortality at 400 ppm worked out at 0%.
Regarding `COc1ccc2nccc(NCCc3ccc(Cl)cc3)c2c1` [Example 16, N-[2-(4-chlorophenyl)ethyl]-6-methoxy-4-quinolinamine], in assay [1], the “RICE BLAST” value is on record as “+ (20-89% control at 400 ppm)”. In addition, in assay [2], the mortality at 200 ppm is 0% and the mortality at 400 ppm was 0%. Further, in assay [3], the mortality at 200 ppm is 0% and the mortality at 400 ppm was 0%. Besides, the “DOWN MDEW” value in assay [4] is listed as “+++ (90-100% control at 100 ppm)”. For the same compound, the “LEAF SPOT” value in [5] is “+++ (90-100% control at 100 ppm)”. Further, the “LEAF BLOT” value in [6] was “- (0-19% control at 400 ppm)”. In addition, the “GRAY MOLD” value in assay [7] is recorded as “- (0-19% control at 400 ppm)”. Further, the “APPL SCAB” value in assay [8] is recorded as “- (0-19% control at 400 ppm)”. For the same compound, in assay [9], the mortality at 12 ppm was found to be 0% and the mortality at 24 ppm is 0%. For the same compound, the “LEAF RUST” value in [10] is given as “+ (20-89% control at 400 ppm)”. Further, the “POWD MDEW” value in [11] is recorded as “- (0-19% control at 400 ppm)”. Moreover, in [12], the mortality at 200 ppm was determined as 0% and the mortality at 400 ppm came out at 0%.
In the case of `CC(CNc1ccnc2ccccc12)(c1ccccc1)c1ccccc1` [Example 34, N-(2,2-diphenylpropyl)-4-quinolinamine], the “RICE BLAST” value in [1] is “+ (20-89% control at 400 ppm)”. Besides, the mortality at 200 ppm in [2], in assay [3] and in [12] was 0% in each case. The “DOWN MDEW” value in assay [4] is reported as “+++ (90-100% control at 100 ppm)”. Besides, the “LEAF SPOT” value in assay [5] was “+ (20-89% control at 400 ppm)”. The “LEAF BLOT” value in assay [6] is given as “- (0-19% control at 400 ppm)”. In assay [7], the “GRAY MOLD” value is listed as “- (0-19% control at 400 ppm)”. The “APPL SCAB” value in assay [8] was “- (0-19% control at 400 ppm)”. The mortality at 12 ppm in [9] turned out to be 0%. Besides, in assay [10], the “LEAF RUST” value was “++ (90-100% control at 400 ppm)”. For the same compound, in [11], the “POWD MDEW” value is on record as “+ (20-89% control at 400 ppm)”.
As to `Fc1ccc(CCNc2ccnc3ccccc23)cc1` [Example 35, N-[2-(4-fluorophenyl)ethyl]-4-quinolinamine], the “RICE BLAST” value in [1] is “+ (20-89% control at 400 ppm)”. Also, the mortality at 200 ppm in assay [2], in [3] and in assay [12] was 0% throughout. For the same compound, in assay [4], the “DOWN MDEW” value was “+++ (90-100% control at 100 ppm)”. Also, the “LEAF SPOT” value in assay [5] is on record as “+++ (90-100% control at 100 ppm)”. Further, the “LEAF BLOT” value in assay [6] is on record as “- (0-19% control at 400 ppm)”. For the same compound, the “GRAY MOLD” value in assay [7] is given as “- (0-19% control at 400 ppm)”. The “APPL SCAB” value in assay [8] is “- (0-19% control at 400 ppm)”. Also, the mortality at 12 ppm in assay [9] came out at 0%. In addition, in assay [10], the “LEAF RUST” value is listed as “+ (20-89% control at 400 ppm)”. Further, the “POWD MDEW” value in [11] was “+ (20-89% control at 400 ppm)”.
